Where a name gives a salt, the structure may show the parent alone.
Molecular target: T1, IRAK4 (Homo sapiens, UniProt Q9NWZ3)
T1 construct: endogenous in cells; host or cells: THP-1 cells
T1 sequence (Q9NWZ3 1-460): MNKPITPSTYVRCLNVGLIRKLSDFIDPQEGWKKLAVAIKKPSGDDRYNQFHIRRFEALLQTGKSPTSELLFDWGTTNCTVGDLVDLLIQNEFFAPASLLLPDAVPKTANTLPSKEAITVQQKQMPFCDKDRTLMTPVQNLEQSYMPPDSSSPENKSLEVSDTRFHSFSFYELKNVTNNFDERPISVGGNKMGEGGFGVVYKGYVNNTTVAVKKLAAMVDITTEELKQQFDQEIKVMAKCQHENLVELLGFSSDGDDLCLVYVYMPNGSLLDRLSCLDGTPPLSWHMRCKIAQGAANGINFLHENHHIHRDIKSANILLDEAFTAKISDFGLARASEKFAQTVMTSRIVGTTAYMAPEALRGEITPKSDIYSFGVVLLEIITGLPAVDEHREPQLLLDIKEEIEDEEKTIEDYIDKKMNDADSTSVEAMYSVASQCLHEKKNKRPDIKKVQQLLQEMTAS
Assay: LVL THP1 HTRF (THP1 Homogeneous Time Resolved Fluorescence)
Assay type: cell-based
Details: THP1 cells, 18 h incubation with compound; for DC50: read-out: LVL THP1 HTRF EC50
Summary of the method: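 IRAK4 HTRF read-out (665/615 nm ratio, anti-IRAK4 d2 acceptor and K donor, 18 h dark incubation at room temperature) on lysates of THP-1 cells. Cells were treated 18 h at 37° C. with 20 nL compound in DMSO, in colorless RPMI with 10% FBS, with a duplicate CTG plate.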

Cc1cc(N2CCN(CC[C@H]3CC[C@H](NC(=O)c4cnc(-n5ncc6cc(C#N)c(N)nc65)cc4N[C@H](C)C#N)CC3)C[C@H]2C)ccc1C1CCC(=O)NC1=O (stereo partly shown) [P-171]
LVL THP1 HTRF YMIN: 1.2% | DC50: 23 nM

Cc1cc(N2CCN(CC[C@H]3CC[C@H](NC(=O)c4cnc(-n5ncc6cc(C#N)c(N)nc65)cc4N[C@H](C)C#N)CC3)C[C@H]2C)ccc1C1CCC(=O)NC1=O (stereo partly shown) [P-172]
LVL THP1 HTRF YMIN: 1.1% | DC50: 10 nM

C[C@H](C#N)Nc1cc(-n2ncc3cc(C#N)c(N)nc32)ncc1C(=O)N[C@H]1CC[C@H](CCN2CCN(c3ccc(C4CCC(=O)NC4=O)c(F)c3)[C@H](C)C2)CC1 (stereo partly shown) [P-173]
LVL THP1 HTRF YMIN: 0.7% | DC50: 11 nM

C[C@H](C#N)Nc1cc(-n2ncc3cc(C#N)cnc32)ncc1C(=O)N[C@H]1CC[C@H](CCN2CC3CC2CN3c2ccc(C3CCC(=O)NC3=O)cc2)CC1 (stereo partly shown) [P-179]
LVL THP1 HTRF YMIN: 2.0% | DC50: 65 nM

COc1nc2c(cnn2-c2cc(N[C@H](C)C#N)c(C(=O)N[C@H]3CC[C@H](CCN4CCN(c5ccc(C6CCC(=O)NC6=O)cc5)CC4)CC3)cn2)cc1C#N (stereo partly shown) [P-184]
LVL THP1 HTRF YMIN: 1.3% | DC50: 51 nM

CC(F)(F)CNc1cc(-n2ncc3cc(C#N)c(N)nc32)ncc1C(=O)N[C@H]1CC[C@H](CCN2CCN(c3ccc(C4CCC(=O)NC4=O)cc3)CC2)CC1 (stereo partly shown) [P-185]
LVL THP1 HTRF YMIN: 1.5% | DC50: 17 nM

C[C@H](C#N)Nc1cc(-n2ncc3cc(C#N)c(N)nc32)ncc1C(=O)N[C@H]1CC[C@H](CCN2CCN(c3ccc(C4CCC(=O)NC4=O)c(Cl)c3)[C@H](C)C2)CC1 (stereo partly shown) [P-187]
LVL THP1 HTRF YMIN: 1.4% | DC50: 20 nM

CNc1nc2c(cnn2-c2cc(N[C@H](C)C#N)c(C(=O)N[C@H]3CC[C@H](CCN4CCN(c5ccc(C6CCC(=O)NC6=O)cc5)CC4)CC3)cn2)cc1C#N (stereo partly shown) [P-188]
LVL THP1 HTRF YMIN: 1.1% | DC50: 6 nM

C[C@H](C#N)Nc1cc(-n2ncc3cc(C#N)cnc32)ncc1C(=O)N[C@H]1CC[C@H](CCN2C3COCC2CN(c2ccc(C4CCC(=O)NC4=O)cc2)C3)CC1 (stereo partly shown) [P-189]
LVL THP1 HTRF YMIN: 25.3% | DC50: 54 nM

C[C@H](C#N)Nc1cc(-n2ncc3cc(C#N)cnc32)ncc1C(=O)N[C@H]1CC[C@H](CCN2CCN(c3ccc(C4CCC(=O)NC4=O)cc3)C3(COC3)C2)CC1 (stereo partly shown) [P-190]
LVL THP1 HTRF YMIN: 24.9% | DC50: 158 nM

C[C@H](C#N)Nc1cc(-n2ncc3cc(C#N)cnc32)ncc1C(=O)N[C@H]1CC[C@H](CCN2CCN(c3ccc(C4CCC(=O)NC4=O)cc3)C3(CC3)C2)CC1 (stereo partly shown) [P-191]
LVL THP1 HTRF YMIN: 20.4% | DC50: 1790 nM

CCc1nc2c(cnn2-c2cc(N[C@H](C)C#N)c(C(=O)N[C@H]3CC[C@H](CCN4CCN(c5ccc(C6CCC(=O)NC6=O)cc5)CC4)CC3)cn2)cc1C#N (stereo partly shown) [P-192]
LVL THP1 HTRF YMIN: 1.0% | DC50: 58 nM

C[C@H](C#N)Nc1cc(-n2ncc3cc(C#N)cnc32)ncc1C(=O)N[C@H]1CC[C@H](CCN2CC3COCC(C2)N3c2ccc(C3CCC(=O)NC3=O)cc2)CC1 (stereo partly shown) [P-194]
LVL THP1 HTRF YMIN: 39.8% | DC50: 4040 nM

C[C@H](C#N)Nc1cc(-n2ncc3cc(C#N)cnc32)ncc1-c1cn(C2CCC(CCN3CCN(c4ccc(C5CCC(=O)NC5=O)cc4)CC3)CC2)nn1 (stereo partly shown) [P-195]
LVL THP1 HTRF YMIN: 2.2%

C[C@H](C#N)Nc1cc(-n2ncc3cc(C#N)cnc32)ncc1-c1cn([C@H]2CC[C@H](CCN3CCN(c4ccc(C5CCC(=O)NC5=O)cc4)CC3)CC2)nn1 (stereo partly shown) [P-195]
DC50: 6 nM

C[C@H](C#N)Nc1cc(-n2ncc3cc(C#N)cnc32)ncc1-c1cc(C2CCC(CCN3CCN(c4ccc(C5CCC(=O)NC5=O)cc4)CC3)CC2)on1 (stereo partly shown) [P-196]
LVL THP1 HTRF YMIN: 3.5%

C[C@H](C#N)Nc1cc(-n2ncc3cc(C#N)cnc32)ncc1-c1cc([C@H]2CC[C@H](CCN3CCN(c4ccc(C5CCC(=O)NC5=O)cc4)CC3)CC2)on1 (stereo partly shown) [P-196]
DC50: 167 nM

CC(C#N)Nc1cc(-n2ncc3cc(C#N)cnc32)ncc1-n1cc(C2CCC(C(F)CN3CCN(c4ccc(C5CCC(=O)NC5=O)cc4)CC3)CC2)nn1 (stereo not shown) [P-198]
LVL THP1 HTRF YMIN: 1.2% | DC50: 10 nM

C[C@H](C#N)Nc1cc(-n2ncc3cc(C#N)cnc32)ncc1-n1cc([C@H]2CC[C@H](C(Cl)CN3CCN(c4ccc(C5CCC(=O)NC5=O)cc4)CC3)CC2)nn1 (stereo partly drawn) [P-199, 1-(5-(4-((1R,4R)-4-((1R)-1-chloro-2-(4-(4-(2,6-dioxopiperidin-3-yl)phenyl)piperazin-1-yl)ethyl)cyclohexyl)-1H-1,2,3-triazol-1-yl)-4-(((R)-1-cyanoethyl)amino)pyridin-2-yl)-1H-pyrazolo[3,4-b]pyridine-5-carbonitrile.TFA]
LVL THP1 HTRF YMIN: 2.7% | DC50: 2 nM

C[C@H](C#N)Nc1cc(-n2ccc3cc(C#N)c(N)nc32)ncc1C(=O)N[C@H]1CC[C@H](CCN2CCN(c3ccc(C4CCC(=O)NC4=O)cc3)CC2)CC1 (stereo partly shown) [P-200]
LVL THP1 HTRF YMIN: 1.5% | DC50: 13 nM

C[C@H](C#N)Nc1cc(-n2ncc3cc(C#N)cnc32)ncc1-n1cc(C2CCC(CCN3[C@@H](C)CN(c4ccc(C5CCC(=O)NC5=O)cc4)C[C@@H]3C)CC2)nn1 (stereo partly shown) [P-201]
LVL THP1 HTRF YMIN: 0.6% | DC50: 2 nM

C[C@H](C#N)Nc1cc(-n2ncc3cc(C#N)cnc32)ncc1-n1cc(C23CCC(CCN4CCN(c5ccc(C6CCC(=O)NC6=O)cc5)CC4)(CC2)C3)nn1 (stereo partly drawn) [P-202, 1-(4-(((R)-1-cyanoethyl)amino)-5-(4-(4-(2-(4-(4-(2,6-dioxopiperidin-3-yl)phenyl)piperazin-1-yl)ethyl)bicyclo[2.2.1]heptan-1-yl)-1H-1,2,3-triazol-1-yl)pyridin-2-yl)-1H-pyrazolo[3,4-b]pyridine-5-carbonitrile, TFA]
LVL THP1 HTRF YMIN: 1.4% | DC50: 10 nM

C[C@H](C#N)Nc1cc(-n2ncc3cc(C#N)cnc32)ncc1-c1cnn(C2CCC(CCN3CCN(c4ccc(C5CCC(=O)NC5=O)cc4)CC3)CC2)c1 (stereo partly shown) [P-203]
LVL THP1 HTRF YMIN: 3.0%

C[C@H](C#N)Nc1cc(-n2ncc3cc(C#N)cnc32)ncc1-c1cnn([C@H]2CC[C@H](CCN3CCN(c4ccc(C5CCC(=O)NC5=O)cc4)CC3)CC2)c1 (stereo partly shown) [P-203]
DC50: 11 nM

C[C@@H](C#N)Nc1cc(-n2ncc3cc(C#N)cnc32)ncc1-n1cc(C2CCC(CCN3CCN(c4ccc(C5CCC(=O)NC5=O)cc4)CC3)CC2)nn1 (stereo partly shown) [P-205]
LVL THP1 HTRF YMIN: 1.1%

C[C@@H](C#N)Nc1cc(-n2ncc3cc(C#N)cnc32)ncc1-n1cc([C@H]2CC[C@H](CCN3CCN(c4ccc(C5CCC(=O)NC5=O)cc4)CC3)CC2)nn1 (stereo partly shown) [P-205]
DC50: 30 nM

C[C@H](C#N)Nc1cc(-n2ncc3cc(C#N)cnc32)ncc1-n1cc(C2CCC(CCN3C[C@H](C)N(c4ccc(C5CCC(=O)NC5=O)cc4)C[C@H]3C)CC2)nn1 (stereo partly shown) [P-206]
LVL THP1 HTRF YMIN: 1.1% | DC50: 2 nM

C[C@H](C#N)Nc1cc(-n2ncc3cc(C#N)c(N)nc32)ncc1-n1cc(C2CCC(CCN3C[C@@H](C)N(c4ccc(C5CCC(=O)NC5=O)cc4)C[C@@H]3C)CC2)nn1 (stereo partly shown) [P-207]
LVL THP1 HTRF YMIN: 1.3% | DC50: > 5000 nM

C[C@H](C#N)Nc1cc(-n2ncc3cc(C#N)cnc32)ncc1-n1cc(C2CCC(CCN3C[C@@H](C)N(c4ccc(C5CCC(=O)NC5=O)cc4)C[C@@H]3C)CC2)nn1 (stereo partly shown) [P-208]
LVL THP1 HTRF YMIN: 1.4% | DC50: 9 nM

C[C@H](C#N)Nc1cc(-n2ncc3cc(C#N)cnc32)ncc1-n1cc(C2CCC(CCN3CCC(c4ccc(C5CCC(=O)NC5=O)cc4)CC3)CC2)nn1 (stereo partly shown) [P-209]
LVL THP1 HTRF YMIN: 0.9%

C[C@H](C#N)Nc1cc(-n2ncc3cc(C#N)cnc32)ncc1-n1cc([C@H]2CC[C@H](CCN3CCC(c4ccc(C5CCC(=O)NC5=O)cc4)CC3)CC2)nn1 (stereo partly shown) [P-209]
DC50: 1 nM

C[C@H](C#N)Nc1cc(-n2ncc3cc(C#N)cnc32)ncc1-n1cc(C2CCC(CCN3CCN(c4ccc([C@]5(C)CCC(=O)NC5=O)cc4)CC3)CC2)nn1 (stereo partly shown) [P-210]
LVL THP1 HTRF YMIN: >95.0% | DC50: 15 nM

C[C@H](C#N)Nc1cc(-n2ncc3cc(C#N)cnc32)ncc1-c1cc(C2CCC(CCN3CCN(c4ccc(C5CCC(=O)NC5=O)cc4)CC3)CC2)no1 (stereo partly shown) [P-211]
LVL THP1 HTRF YMIN: 1.1%

C[C@H](C#N)Nc1cc(-n2ncc3cc(C#N)cnc32)ncc1-c1cc([C@H]2CC[C@H](CCN3CCN(c4ccc(C5CCC(=O)NC5=O)cc4)CC3)CC2)no1 (stereo partly shown) [P-211]
DC50: 3 nM

CC(C#N)Nc1cc(-n2ncc3cc(C#N)cnc32)ncc1-n1cc(C23CCC(CCN4CCN(c5ccc(C6CCC(=O)NC6=O)cc5)CC4)(CC2)CC3)nn1 (stereo not shown) [P-212]
LVL THP1 HTRF YMIN: 1.5% | DC50: 3 nM

CC(C#N)Nc1cc(-n2ncc3cc(C#N)cnc32)ncc1-n1cc(C2CCC(C(C)CN3CCN(c4ccc(C5CCC(=O)NC5=O)cc4)CC3)CC2)nn1 (stereo not shown) [P-213]
LVL THP1 HTRF YMIN: 1.7% | DC50: 2 nM

C[C@H](C#N)Nc1cc(-n2ncc3cc(C#N)c(N)nc32)ncc1-n1cc(C2CCC(CCN3CCC(c4ccc(C5CCC(=O)NC5=O)cc4)CC3)CC2)nn1 (stereo partly shown) [P-214]
LVL THP1 HTRF YMIN: <0.5%

C[C@H](C#N)Nc1cc(-n2ncc3cc(C#N)c(N)nc32)ncc1-n1cc([C@H]2CC[C@H](CCN3CCC(c4ccc(C5CCC(=O)NC5=O)cc4)CC3)CC2)nn1 (stereo partly shown) [P-214]
DC50: < 1 nM

C[C@H](C#N)Nc1cc(-n2ncc3cc(C#N)c(N)nc32)ncc1-n1cc(C2CCC(CCN3C[C@H](C)N(c4ccc(C5CCC(=O)NC5=O)cc4)C[C@H]3C)CC2)nn1 (stereo partly shown) [P-215]
LVL THP1 HTRF YMIN: 0.7% | DC50: < 1 nM
